Converted amounts (≈) assume the structure as drawn. Where two headings read alike, the source gives them in different places.
Experiments:
Two-Spotted Spider Mite = assay: Biological Method D: Foliar Insecticidal Activity Test, mite test; format: in vivo, Tetranychus urticae; design: key to LC50 TSM: I = inactive at concentration listed; settings: Method D foliar test, Two-Spotted Spider Mite; for LC50: Tetranychus urticae, read-out: LC50 TSM
Description: (§1) Biological Method D: Foliar Insecticidal Activity Test
(§2) In evaluating the foliar insecticidal activity of the compounds of this invention against insects and mites, the following test procedures were employed.
(§3) Not all compounds were tested at each of the several concentrations stated above. Test concentrations of a compound were selected as those most likely to differentiate dose response of a particular compound toward a particular test insect.
(§4) Initial evaluations were made on one or more of the following pests:
For the mite test, infested bean (Phaseolus limensis var. Woods Prolific) leaf discs [3.18 cm (1.25") in diameter] containing about 50 mites were placed in a Petri dish lid on a moistened piece of cotton. The leaves were then sprayed to thorough wetness with the test solution using a rotating turntable, held for twenty-four hours and then the percentage killed was determined.
(§5) The mortalities obtained in this manner were plotted on logarithmic probability paper.
(§6) The rotating turntable consists of a fixed, continuously operating spray nozzle under which targets are rotated at a fixed speed and distance. If the target is a Petri dish (such as for the bean beetle, armyworm, mite, or aphid tests), the distance from the nozzle is 38.1 cm (15 inches). If the target is a Mason jar (such as for the boll weevil test), the distance from the nozzle is 17.8 cm (7 inches). The nozzle is located 8 inches from the rotating shaft. The targets on individual platforms revolve around the shaft at 1 revolution per 20 seconds but only a brief portion of this time occurs in the spray path. Targets pass only once under the nozzle and then are removed to drying hoods.
(§7) The nozzle used is a 1/4 JCO Spraying Systems (Wheaton, Illinois) air atomizing nozzle equipped with a No. 2850 fluid cap and a No. 70 air cap. At the 68.95 x 10³ Pa gauge (10 psig) air pressure used and with liquid siphon feed, 1.89 ℓ/hr [0.5 GPH (gallons per hour)] are delivered in a round spray pattern with a 21 degree spray angle. Targets are misted with spray droplets to the point that the droplets coalesce to form a uniform thin film insufficient to drown test organisms.

Mexican Bean Beetle = assay: Biological Method D: Foliar Insecticidal Activity Test, Mexican Bean Beetle test; format: in vivo, Epilachna varivestis; design: key to LC50 BB 96 hrs / LC50 BB 48 hrs.: I = inactive at concentration listed; settings: Mexican Bean Beetle; for LC50: Epilachna varivestis
Description: as §1, §2, §3, §4
(§8) For the Mexican Bean Beetle and Southern armyworm tests, individual lima bean (Phaseolus limeniss var. Woods' Prolific) leaves were placed on moistened pieces of filter paper in Petri dishes. The leaves were then sprayed with the test solution using a rotating turntable and allowed to dry. The dishes were then infested with 10 third instar larvae of either the Mexican Been Beetle or the Southern Armyworm. The dishes were then covered. Percent mortality was determined for each species and spray concentration at 48 and 96 hours after treatment.
as §5, §6, §7

Green Peach Aphid = assay: Biological Method D: Foliar Insecticidal Activity Test, aphid test; format: in vivo, Myzus persicae; design: key: I = inactive at concentration listed
Description: as §1, §2, §3, §4
For the aphid test, infested broccoli (Brassica oleracea italica var. DiCicco) leaves containing about 50 aphids were placed in a Petri dish lid on a moistened piece of cotton. The leaves were then sprayed to thorough wetness with the test solution using a rotating turntable, held for twenty-four hours and then the percentage killed was determined.
as §5, §6, §7

Southern Armyworm = assay: Biological Method D: Foliar Insecticidal Activity Test, Southern Armyworm test; format: in vivo, Spodoptera eridania; design: key: I = inactive at concentration listed
Description: as §1, §2, §3, §4, §8, §5, §6, §7

Boll Weevil = assay: Biological Method D: Foliar Insecticidal Activity Test, boll weevil test; format: in vivo, Anthonomous grandis; design: key: I = inactive at concentration listed
Description: as §1, §2, §3, §4
For the boll weevil test, 10 adult weevils were placed in a 0.24 ℓ (0.5 pint) glass Mason jar containing a small cube of apple. The weevils were confined to the jar by fiberglass screen mesh secured by a screw-type rim cap. The jars were then sprayed with the test solution using a rotating turntable; directing the spray through the mesh into the jar. The percentage killed was determined after forty-eight and ninety six hours.
as §5, §6, §7

[1] = system: southern corn rootworm, Diabrotica undecimpunctata howardi; assay: Biological Method A: Corn Rootworm Screening Test (treated non-aggressive soil); settings: soil concentration giving 90% mortality, 10 days at 27°C
[2] = Method D foliar test, 48 hrs, read-out: LC50 BB 48 hrs.
[3] = Method D foliar test, 96 hrs, read-out: LC50 BB 96 hrs

Row | Structure (SMILES) | LC50 TSM (Two-Spotted Spider Mite) | LC50 (Mexican Bean Beetle; [2]) | LC50 (Mexican Bean Beetle; [3]) | LC50 GPA (Green Peach Aphid) | LC50 AW 48 hrs (Southern Armyworm) | LC50 AW 96 hrs (Southern Armyworm) | LC50 BW 48 hrs (Boll Weevil) | LC50 BW 96 hrs (Boll Weevil) | primary nonagressive Method A crw LC90 [1] | LC50 (Two-Spotted Spider Mite) | LC50 BB 96 hrs (Mexican Bean Beetle; Method D foliar test, 96 hrs) | LC50 BB 48 hrs. (Mexican Bean Beetle; Method D foliar test, 48 hrs) | LC50 (Mexican Bean Beetle; foliar, 48 hrs, compounds a-r, read-out: LC 50 BB 48 hrs.) | LC50 (Mexican Bean Beetle; foliar, 96 hrs, compounds a-r, read-out: LC 50 BB 96 hrs.)
1 | CCCNP(=S)(NNP(=S)(OCCC)OCCC)OCC (stereo not shown) [Compound 25] | I | 38 µg/mL (≈ 101 µM) | 13 µg/mL (≈ 34.4 µM) | I | I | I | I | I | 2.5 ppm | – | – | – | – | –
2 | CCOP(=S)(NNP1(=S)N(C)CCN1C)OCC [Compound 3] | I | – | – | I | I | I | I | I | 4.5 ppm | – | – | – | – | –
3 | COP(=S)(NNP(=S)(OC)OC)OC [Compound 42, reference compound] | – | 600 µg/mL (≈ 2140 µM) | – | I | I | I | I | I | I | 150 µg/mL (≈ 535 µM) | I | – | – | –
4 | CCOP(=O)(NNP(=S)(OCC)OCC)SCC (stereo not shown) [Compound 21] | I | – | – | I | I | I | I | I | 4.7 ppm | – | – | – | – | –
5 | CCOP(=S)(NNP(=S)(OCC)SCC)OCC (stereo not shown) [Compound 26] | – | 150 µg/mL (≈ 426 µM) | 150 µg/mL (≈ 426 µM) | I | I | I | I | I | 1.1 ppm | 640 µg/mL (≈ 1820 µM) | – | – | – | –
6 | CCOP(=S)(NNP(=S)(OCC)N1CCCCC1)OCC (stereo not shown) [Compound 62] | I | – | – | I | I | I | I | I | 1.1 ppm | – | I | I | – | –
7 | CCOP(=S)(NNP(=S)(OC)OC)OCC [Compound 36, reference compound] | – | – | 600 µg/mL (≈ 1950 µM) | I | I | I | I | I | 0.90 ppm | 79 µg/mL (≈ 256 µM) | – | I | – | –
8 | CCOP(=S)(NNP(=S)(OCC)N1CCCC1)OCC (stereo not shown) [Compound 60] | I | – | – | I | I | I | I | I | 1.1 ppm | – | I | I | – | –
9 | CCOP(=S)(NNP(=S)(OCC)OC(C)(C)C(F)(F)F)OCC (stereo not shown) [Compound 40] | – | 38 µg/mL (≈ 90.8 µM) | 45 µg/mL (≈ 108 µM) | I | I | I | I | I | 1.0 ppm | 150 µg/mL (≈ 359 µM) | – | – | – | –
10 | CCOP(=S)(NN(C)P(=S)(OCC)OCC)OC(C)C (stereo not shown) [p] | – | – | – | – | – | – | – | – | – | – | – | – | 270 µg/mL (≈ 741 µM) | 78 µg/mL (≈ 214 µM)
11 | CCOP(=O)(NNP(=S)(OCC)OC(C)CC)SC(C)CC (stereo not shown) [Compound 56] | I | 380 µg/mL (≈ 968 µM) | 31 µg/mL (≈ 79 µM) | I | I | I | I | I | 1.1 ppm | – | – | – | – | –
12 | CCCOP(=S)(NNP(=S)(OC)OC)OCCC [Compound 37, reference compound] | – | 150 µg/mL (≈ 446 µM) | 62 µg/mL (≈ 184 µM) | I | I | I | I | I | 1.7 ppm | 450 µg/mL (≈ 1340 µM) | – | – | – | –
13 | CCCOP(=S)(NNP(=O)(OCC)SCC)OCCC (stereo not shown) [Compound 22] | I | 150 µg/mL (≈ 412 µM) | 115 µg/mL (≈ 316 µM) | I | I | I | I | I | I | – | – | – | – | –
